# Assay results taken from patent US8466188B2, “Use of spiro-oxindole compounds as therapeutic agents” (Xenon Pharmaceuticals Inc., priority 2006, dated 2013).
row,melting point,Structure (SMILES)
1,165 to 167 °C,"Cc1noc(C)c1CN1C(=O)C2(COc3cc4c(cc32)OCO4)c2ccccc21 (centres unmarked) [Example 10.51, 1′-[(3,5-dimethylisoxazol-4-yl)methyl]spiro[furo[2,3-f][1,3]benzodioxole-7,3′-indol]-2′(1′H)-one]"
2,119 to 120 °C,"CCCCN1C(=O)C2(COc3cc4c(cc32)OCO4)c2ccccc21 (centres unmarked) [Example 10.33, 1′-butylspiro[furo[2,3-f][1,3]benzodioxole-7,3′-indol]-2′(1′H)-one]"
3,148 to 150 °C,"O=C1N(Cc2ccc(Cl)o2)c2ccccc2C12COc1cc3c(cc12)OCO3 (centres unmarked) [Example 10.62, 1′-[(5-chloro-2-furyl)methyl]spiro[furo[2,3-f][1,3]benzodioxole-7,3′-indol]-2′(1′H)-one]"
4,225 to 227 °C,"O=C1N(Cc2sc(C(F)(F)F)cc2O)c2ccccc2C12COc1cc3c(cc12)OCO3 (centres unmarked) [Example 10.68, 1′-{[3-hydroxy-5-(trifluoromethyl)-2-thienyl]methyl}spiro[furo[2,3-f][1,3]benzodioxole-7,3′-indol]-2′(1′H)-one]"
5,148 to 150 °C,"O=C1N(Cc2ccc(-c3ccccc3Cl)o2)c2ccccc2C12COc1cc3c(cc12)OCO3 (centres unmarked) [Example 10.64, 1′-{[5-(2-chlorophenyl)-2-furyl]methyl}spiro[furo[2,3-f][1,3]benzodioxole-7,3′-indol]-2′(1′H)-one]"
6,159 to 161 °C,"Cc1oncc1CN1C(=O)C2(COc3cc4c(cc32)OCO4)c2ccccc21 (centres unmarked) [Example 10.34, 1′-[(5-methylisoxazol-4-yl)methyl]spiro[furo[2,3-f][1,3]benzodioxole-7,3′indol]-2′(1′H)-one]"
7,180 to 182 °C,"O=C1Nc2ccccc2C12COc1cc(OC(F)(F)F)ccc12 (centres unmarked) [Example 1.36, 6-(trifluoromethoxy)spiro[1-benzofuran-3,3′-indol]-2′(1′H)one]"
8,115 to 118 °C,"Cn1cc(CN2C(=O)C3(COc4cc5c(cc43)OCO5)c3ccccc32)ccc1=O (centres unmarked) [Example 10.83, 1′-[(1-methyl-6-oxo-1,6-dihydropyridin-3-yl)methyl]spiro[furo[2,3-f][1,3]benzodioxole-7,3′-indol]-2′(1′H)-one]"
9,252 °C (dec.),"O=C1Nc2ccccc2C12COc1cc3c(cc12)OCO3 (centres unmarked) [Example 1.8, spiro[furo[2,3-f][1,3]benzodioxole-7,3′-indol]-2′(1′H)-one]"
10,> 230 °C,"O=C1Nc2cccc(-c3cccc4c3oc3ccccc34)c2C12COc1cc3c(cc12)OCO3 (centres unmarked) [Example 4.5, 4′-dibenzo[b,d]furan-4-ylspiro[furo[2,3-f][1,3]benzodioxole-7,3′-indol]-2′(1′H)-one]"
11,144 to 146 °C,"O=C1N(CCCCl)c2ccccc2C12COc1cc3c(cc12)OCO3 (centres unmarked) [Example 10.57, 1′-(3-chloropropyl)spiro[furo[2,3-f][1,3]benzodioxole-7,3′-indol]-2′(1′H)-one]"
12,96 to 98 °C,"Cc1ccc2c(c1)C1(COc3cc4c(cc31)OCO4)C(=O)N2Cc1ccc(C(F)(F)F)o1 (centres unmarked) [Example 10.76, 5′-methyl-1′-{[5-(trifluoromethyl)-2-furyl]methyl}spiro[furo[2,3-f][1,3]benzodioxole-7,3′-indol]-2′(1′H)-one]"

# More lines, now with the values behind:
row,Structure (SMILES),melting point
1,"CC1(C)COc2cc3c(cc21)C1(CO3)C(=O)N(C(c2ccccc2)c2ccccc2)c2ccccc21 (centres unmarked) [Example 1.20, 1′-(diphenylmethyl)-5,5-dimethyl-5,6-dihydrospiro[benzo[1,2-b:5,4-b′]difuran-3,3′-indol]-2′(1′H)-one]",190 to 192 °C
2,CC1(C)COc2cc3c(cc21)C1(CO3)C(=O)N(Cc2ccccn2)c2ccccc21.Cl (centres unmarked),145 to 147 °C
3,"Cc1ccc(F)c2c1N(CC(=O)Nc1ccccc1F)C(=O)C21COc2cc3c(cc21)CCO3 (centres unmarked) [Example 3.14, 2-(4′-fluoro-7′-methyl-2′-oxo-5,6-dihydrospiro[benzo[1,2-b:5,4-b′]difuran-3,3′-indol]-1′(2′H)-yl)-N-(2-fluorophenyl)acetamide]",250 to 255 °C
4,"COc1ccc2c(c1)C1(CO2)C(=O)N(C)c2ccccc21 (centres unmarked) [Example 58, 5-methoxy-1′-methylspiro[1-benzofuran-3,3′-indol]-2′(1′H)one]",159 to 161 °C
5,"CCOC(=O)CN1C(=O)C2(COc3cc(F)c(F)cc32)c2c(Br)cccc21 (centres unmarked) [Example 1.47, ethyl (4′-bromo-5,6-difluoro-2′-oxospiro[1-benzofuran-3,3′-indol]-1′(2′H)-yl)acetate]",133 to 134 °C
6,"CC1(C)COc2cc3c(cc21)C1(CO3)C(=O)N(Cc2ccc(C(F)(F)F)o2)c2ccccc21 (centres unmarked) [Example 10.21, 5,5-dimethyl-1′-{[5-(trifluoromethyl)-2-furyl]methyl}-5,6-dihydrospiro[benzo[1,2-b:5,4-b′]difuran-3,3′-indol]-2′(1′H)-one]",155 to 160 °C
7,"CN(C)c1ccc(-c2cccc3c2C2(COc4cc5c(cc42)OCO5)C(=O)N3Cc2ccc(C(F)(F)F)o2)cn1 (centres unmarked) [Example 4.7, 4′-[6-(dimethylamino)pyridin-3-yl]-1′-{[5-(trifluoromethyl)-2-furyl]methyl}spiro[furo[2,3-f][1,3]benzodioxole-7,3′-indol]-2′(1′H)-one]",174 to 176 °C
8,"O=C(CN1C(=O)C2(COc3cc4c(cc32)CCO4)c2c(Br)cccc21)Nc1ccccc1F (centres unmarked) [Example 3.12, 2-(4′-bromo-2′-oxo-5,6-dihydrospiro[benzo[1,2-b:5,4-b′]difuran-3,3′-indol]-1′(2′H)-yl)-N-(2-fluorophenyl)acetamide]",245 to 246 °C
9,"CCCCCN1C(=O)C2(COc3cc4nc(C)sc4cc32)c2ccccc21 (centres unmarked) [Example 1.32, 2-methyl-1′-pentylspiro[furo[2,3-f][1,3]benzothiazole-7,3′-indol]-2′(1′H)-one]",105 to 107 °C
10,"O=C1N(Cc2ccc(C(F)(F)F)o2)c2ccccc2C12COc1cc3c(cc12)OCC3 (centres unmarked) [Example 10.71, 1′-{[5-(trifluoromethyl)-2-furyl]methyl}-6,7-dihydrospiro[benzo[1,2-b:4,5-b′]difuran-3,3′-indol]-2′(1′H)-one]",174 to 177 °C
11,"O=C(CN1C(=O)C2(COc3cc4c(cc32)CCO4)c2cc(Cl)ccc21)Nc1ccccc1F (centres unmarked) [Example 3.7, 2-(5′-chloro-2′-oxo-5,6-dihydrospiro[benzo[1,2-b:5,4-b′]difuran-3,3′-indol]-1′(2′H)-yl)-N-(2-fluorophenyl)acetamide]",229 to 230 °C
12,"COc1ccc(-c2cccc3c2C2(COc4cc5c(cc42)OCO5)C(=O)N3Cc2ccc(C(F)(F)F)o2)cn1 (centres unmarked) [Example 4.6, 4′-(6-methoxypyridin-3-yl)-1′-{[5-(trifluoromethyl)-2-furyl]methyl}spiro[furo[2,3-f][1,3]benzodioxole-7,3′-indol]-2′(1′H)-one]",174 to 176 °C
13,"O=C(O)CN1C(=O)C2(COc3cc4c(cc32)CCO4)c2c(Cl)cccc21 (centres unmarked) [Example 2.2, (4′-chloro-2′-oxo-5,6-dihydrospiro[benzo[1,2-b:5,4-b′]difuran-3,3′-indol]-1′(2′H)-yl)acetic acid]",228 to 229 °C
14,"O=C1N(Cc2ccccn2)c2cccc(-c3ccoc3)c2C12COc1cc3c(cc12)CCO3 (centres unmarked) [Example 4.9, 4′-(3-furyl)-1′-(pyridin-2-ylmethyl)-5,6-dihydrospiro[benzo[1,2-b:5,4-b′]difuran-3,3′-indol]-2′(1′H)-one]",195 to 197 °C
